Drawing on PubChem BioAssay AID330 (DTP/NCI, 2004), this text covers T/C for 19 molecules.

Values joined by “and” are separate entries in the source; they are usually repeats but may differ in a detail not shown here. Identical values can stand only once. Inconclusive results and toxic doses are left out.

In the test the test system is P388 leukemia ip, CD2F1 mice, survival T/C. The test can be described thus: NCI In Vivo Anticancer Drug Screen. Data for tumor model P388 Leukemia (intraperitoneal) in CD2F1 (CDF1) mice. As to conditions: endpoint: median survival time, higher = longer survival. An outline of the steps:
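Mice carrying the transplanted tumor received test compound or vehicle. Survival was recorded in each group, and the value is the treated-group measurement divided by that of the vehicle-treated control group.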

Where [1] appears, read: dose: 6.25 mg/kg/injection, schedule: Q01DX005 (ip), vehicle: saline with Tween-80.
[2] abbreviates: dose: 50.0 mg/kg/injection, schedule: Q01DX005 (ip), vehicle: Klucel (hydroxypropylcellulose) (HPC).
Setting [3] is: dose: 100.0 mg/kg/injection, schedule: Q01DX005 (ip), vehicle: Klucel (hydroxypropylcellulose) (HPC).
The mark [4] stands for this setting: dose: 200.0 mg/kg/injection, schedule: Q01DX005 (ip), vehicle: Klucel (hydroxypropylcellulose) (HPC).
The mark [5] stands for this setting: dose: 50.0 mg/kg/injection, schedule: Q01DX005 (ip), vehicle: saline with Tween-80.
[6] abbreviates: dose: 100.0 mg/kg/injection, schedule: Q01DX005 (ip), vehicle: saline with Tween-80.
Where [7] appears, read: dose: 200.0 mg/kg/injection, schedule: Q01DX005 (ip), vehicle: saline with Tween-80.
Setting [8] is: dose: 12.5 mg/kg/injection, schedule: Q01DX005 (ip), vehicle: saline with Tween-80.
The mark [9] stands for this setting: dose: 25.0 mg/kg/injection, schedule: Q01DX005 (ip), vehicle: saline with Tween-80.
[10] abbreviates: dose: 50.0 mg/kg/injection, schedule: Q01DX009 (ip), vehicle: saline with Tween-80.
[11] abbreviates: dose: 100.0 mg/kg/injection, schedule: Q01DX009 (ip), vehicle: saline with Tween-80.
Where [12] appears, read: dose: 100.0 mg/kg/injection, schedule: Q04DX003 (ip), vehicle: saline with Tween-80.
Where [13] appears, read: dose: 200.0 mg/kg/injection, schedule: Q01DX009 (ip), vehicle: saline with Tween-80.

As for `COc1ccc2c([O-])c3[n+](c(OC)c2c1OC)CCc1cc2c(cc1-3)OCO2`, the T/C is 94 % of control (dose: 50.0 mg/kg/injection, schedule: Q04DX002 (ip), vehicle: saline with Tween-80); 104 % of control (dose: 100.0 mg/kg/injection, schedule: Q04DX002 (ip), vehicle: saline with Tween-80); 103 % of control (dose: 200.0 mg/kg/injection, schedule: Q04DX002 (ip), vehicle: saline with Tween-80).
As to `CN1CC2CC3=C(CCC45CC6C(C=C34)C63CCC4(CC67CCC8C9(C)CCCC8%10C(C6CC4CC7%10)N(C)C9)OC53)C(C)(C2)C1` (stereo not given), the T/C reads like this: (dose: 12.5 mg/kg/injection, schedule: Q01DX009 (ip), vehicle: Klucel (hydroxypropylcellulose) (HPC)) 93 % of control; (dose: 25.0 mg/kg/injection, schedule: Q01DX009 (ip), vehicle: Klucel (hydroxypropylcellulose) (HPC)) 103 % of control; (dose: 50.0 mg/kg/injection, schedule: Q01DX009 (ip), vehicle: Klucel (hydroxypropylcellulose) (HPC)) 111 % of control.
With `CC(C)N=C(NC(C)C)c1ccc(NC(=O)Nc2ccc(NC(=O)Nc3ccc(C(=NC(C)C)NC(C)C)cc3)cc2)cc1`, the T/C is 111 % of control (dose: 1.56 mg/kg/injection, schedule: Q01DX005 (ip), vehicle: saline with Tween-80); 108 % of control and 113 % of control (dose: 3.13 mg/kg/injection, schedule: Q01DX005 (ip), vehicle: saline with Tween-80); 104 % of control and 124 % of control under setting [1].
As to `COC(=O)c1nc(-c2ccc3c(n2)C(=O)C(N)=C(OC)C3=O)c(N)c(-c2ccc(OC)c(OC)c2O)c1C`, the T/C was 100 % of control (dose: 1.5 mg/kg/injection, schedule: Q01DX009 (ip), vehicle: saline with Tween-80); 118 % of control (dose: 3.0 mg/kg/injection, schedule: Q01DX009 (ip), vehicle: saline with Tween-80); 122 % of control (dose: 6.0 mg/kg/injection, schedule: Q01DX009 (ip), vehicle: saline with Tween-80); 150 % of control (dose: 6.25 mg/kg/injection, schedule: Q01DX009 (ip), vehicle: saline with Tween-80); 109 % of control (dose: 66.0 mg/kg/injection, schedule: Q04DX003 (ip), vehicle: saline with Tween-80).
`CCN(CC)CCCCCCNc1cc(OC)cc2cccnc12`: the T/C (dose: 12.5 mg/kg/injection, schedule: Q01DX009 (ip), vehicle: saline) is 86 % of control; the T/C (dose: 25.0 mg/kg/injection, schedule: Q01DX009 (ip), vehicle: saline) is 96 % of control; the T/C (dose: 50.0 mg/kg/injection, schedule: Q01DX009 (ip), vehicle: saline) was 90 % of control.
Take `c1ccc2c(c1)[nH]c1c(N3CCOCC3)nnc(N3CCOCC3)c12`: the T/C was 99 % of control under setting [2]; 103 % of control (dose: 60.0 mg/kg/injection, schedule: Q01DX005 (ip), vehicle: saline with Tween-80); 98 % of control under setting [3]; 96 % of control (dose: 120.0 mg/kg/injection, schedule: Q01DX005 (ip), vehicle: saline with Tween-80); 98 % of control under setting [4]; 90 % of control (dose: 240.0 mg/kg/injection, schedule: Q01DX005 (ip), vehicle: saline with Tween-80).
Regarding `CN(CC(=O)NN)c1ccccc1`, the T/C by setting is: under setting [5], 93 % of control; under setting [6], 95 % of control; under setting [7], 95 % of control.
Regarding `Cc1cc2nc3c(=O)[nH]c(=O)nc-3n(CC=O)c2cc1C`, the T/C was 92 % of control (dose: 16.0 mg/kg/injection, schedule: Q01DX009 (ip), vehicle: saline with Tween-80); 91 % of control (dose: 32.0 mg/kg/injection, schedule: Q01DX009 (ip), vehicle: saline with Tween-80); 90 % of control (dose: 64.0 mg/kg/injection, schedule: Q01DX009 (ip), vehicle: saline with Tween-80); 90 % of control (dose: 128.0 mg/kg/injection, schedule: Q01DX009 (ip), vehicle: saline with Tween-80); 104 % of control (dose: 135.0 mg/kg/injection, schedule: Q01DX009 (ip), vehicle: saline with Tween-80); 104 % of control (dose: 180.0 mg/kg/injection, schedule: Q01DX009 (ip), vehicle: saline with Tween-80). The T/C is 104 % of control (dose: 240.0 mg/kg/injection, schedule: Q01DX009 (ip), vehicle: saline with Tween-80); 102 % of control (dose: 256.0 mg/kg/injection, schedule: Q01DX009 (ip), vehicle: saline with Tween-80); 102 % of control (dose: 320.0 mg/kg/injection, schedule: Q01DX009 (ip), vehicle: saline with Tween-80).
Turning to `OC(COc1cccc2ccccc12)CN(CCCl)CCCl` (stereo not given), the T/C (dose: 1.25 mg/kg/injection, schedule: Q01DX009 (ip), vehicle: saline) was 122 % of control and the T/C (dose: 20.0 mg/kg/injection, schedule: Q01DX009 (ip), vehicle: saline) is 91 % of control.
For `CC(=O)c1ccc2c3c(cccc13)C(=O)OC2=O`, the T/C is 100 % of control (dose: 25.0 mg/kg/injection, schedule: Q01DX005 (ip), vehicle: Klucel (hydroxypropylcellulose) (HPC)); 100 % of control and 101 % of control under setting [2]; 102 % of control and 97 % of control under setting [3]; 104 % of control under setting [4].
As for `CCCCN(CCCC)C(=N)OC1CCCCC1`, the T/C was 102 % of control under setting [8], 100 % of control under setting [9] and 100 % of control under setting [5].
As to `Cc1cc(SCC(=O)c2ccc(Br)cc2)cc(C)[o+]1`, the T/C under setting [10] is 100 % of control; the T/C under setting [11] is 86 % of control; the T/C under setting [12] is 104 % of control; the T/C (dose: 200.0 mg/kg/injection, schedule: Q04DX003 (ip), vehicle: saline with Tween-80) was 114 % of control.
As to `Nc1ccc(NC(=O)c2ccc([N+](=O)[O-])cc2)cc1`, the T/C reads like this: (dose: 25.0 mg/kg/injection, schedule: Q01DX009 (ip), vehicle: other) 115 % of control; (dose: 50.0 mg/kg/injection, schedule: Q01DX009 (ip), vehicle: other) 112 % of control; (dose: 100.0 mg/kg/injection, schedule: Q01DX009 (ip), vehicle: other) 106 % of control; (dose: 200.0 mg/kg/injection, schedule: Q01DX009 (ip), vehicle: other) 115 % of control; (dose: 400.0 mg/kg/injection, schedule: Q01DX009 (ip), vehicle: other) 123 % of control.
Regarding `CN(C)C(=O)Nc1cccc(OC(=O)Nc2ccccc2)c1`, the T/C is, setting by setting: (dose: 25.0 mg/kg/injection, schedule: Q04DX003 (ip), vehicle: saline with Tween-80) 101 % of control; (dose: 50.0 mg/kg/injection, schedule: Q04DX003 (ip), vehicle: saline with Tween-80) 101 % of control; under setting [12], 90 % of control.
For the molecule `Cn1c(-c2ccccc2)c/c(=N\NS(C)(=O)=O)c2cc(S(=O)(=O)O)ccc21`, the T/C is 96 % of control under setting [10], 91 % of control under setting [11] and 98 % of control under setting [13].
Take `Cc1cc(O)c(C2(C)CCC3CC32C)cc1Br` (stereo not given): the T/C is, setting by setting: (dose: 25.0 mg/kg/injection, schedule: Q01DX009 (ip), vehicle: saline with Tween-80) 97 % of control; under setting [10], 105 % of control; under setting [11], 107 % of control; under setting [13], 114 % of control.
Consider `CCCCCCN(CCCCCC)CC(O)c1ccc(Br)c2ccccc12` (stereo not given), for which the T/C was 93 % of control under setting [5], 93 % of control under setting [6] and 88 % of control under setting [7].
Consider `CC(=O)CC(=O)CCCCCCC(=O)O`, for which the T/C reads like this: under setting [10], 103 % of control; under setting [11], 100 % of control; under setting [13], 100 % of control.
As for `Cc1cccc2c1nc(C)c1nc(-c3ccccc3)oc12`, the T/C is 101 % of control under setting [1]; 91 % of control under setting [8]; 90 % of control under setting [9]; 89 % of control under setting [5]; 89 % of control under setting [6]; 94 % of control under setting [7].
